Where “and” joins values, the source holds several entries; their conditions need not be identical. Identical values can stand only once.
Tests used:
[1] = target: DRD3 (Homo sapiens, UniProt P35462); assay: β-arrestin2 recruitment (Tango); type: cell-based; details: DRD3; Tango; read-out: EC50 ± SEM
[2] = target: T1, DRD2 (D2 long receptor) (Homo sapiens, UniProt P14416); assay: Gαi/o-mediated cAMP inhibition (GloSensor split-luciferase cAMP reporter), HEK293T; type: cell-based; details: for EC50: DRD2, agonist, Gαi/o-mediated cAMP inhibition, read-out: EC50 ± SEM; for response, Fig_S11d dose-response source data: replicate values;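 for all read-outs here: compounds applied 15 min at room temperature, then luciferin plus 400 nM isoproterenol to raise cAMP through endogenous β2-adrenergic receptors, luminescence read 15 min later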
[3] = target: T2, DRD4 (D4.4 variant) wild-type (Homo sapiens, UniProt P21917); assay: Radioligand competition binding, [3H]-N-methylspiperone; details: DRD4; [3H]-methylspiperone (0.8-1.0 nM); read-out: Ki
T2 sequence (P21917 1-419): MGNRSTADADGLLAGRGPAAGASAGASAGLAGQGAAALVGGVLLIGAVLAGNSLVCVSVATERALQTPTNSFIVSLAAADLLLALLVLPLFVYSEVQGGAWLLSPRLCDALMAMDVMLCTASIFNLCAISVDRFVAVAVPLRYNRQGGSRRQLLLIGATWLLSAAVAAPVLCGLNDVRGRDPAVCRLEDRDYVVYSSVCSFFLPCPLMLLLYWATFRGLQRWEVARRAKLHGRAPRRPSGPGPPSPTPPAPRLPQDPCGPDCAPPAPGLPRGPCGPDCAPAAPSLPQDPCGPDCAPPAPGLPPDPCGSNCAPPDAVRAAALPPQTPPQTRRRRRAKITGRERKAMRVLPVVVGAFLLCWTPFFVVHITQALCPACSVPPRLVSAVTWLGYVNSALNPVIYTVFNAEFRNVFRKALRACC

[4] = target: T3, DRD2 F1103.28A (Homo sapiens, UniProt P14416, F110A); assay: β-arrestin2 recruitment (Tango), mutant; type: cell-based; parameters: expressed in transfected cells; host or cells: HEK293T (ATCC CRL-11268)
[5] = target: T4, DRD3 F1063.28A (Homo sapiens, UniProt P35462, F106A); assay: biochemical; type: binding; details: DRD3 F1063.28A; read-out: Ki
[6] = target: T5, DRD2 F1103.28L (Homo sapiens, UniProt P14416, F110L); assay: Gαi/o-mediated cAMP inhibition (GloSensor), mutant; type: cell-based; details: DRD2 F1103.28L (b138 head prints DRD2 F1063.28L)
T5 construct: expressed in transfected cells; host or cells: HEK293T (ATCC CRL-11268)

[7] = target: T5, DRD2 F1103.28L; assay: β-arrestin2 recruitment (Tango), mutant; type: cell-based
[8] = target: DRD3 wild-type (Homo sapiens, UniProt P35462); assay: Radioligand competition binding, [3H]-N-methylspiperone; details: for Ki: DRD3, [3H]-methylspiperone (0.8-1.0 nM), read-out: Ki; for pKi ± SEM: DRD3 wild-type
[9] = target: T4, DRD3 F1063.28A; assay: cell-based; type: cell-based; details: DRD3 F1063.28A; Tango; read-out: EC50 ± SEM
[10] = target: T6, DRD4 (D4.4 variant) (Homo sapiens, UniProt P21917); assay: Gαi/o-mediated cAMP inhibition (GloSensor); type: cell-based; details: DRD4; agonist, cAMP inhibition; read-out: EC50 ± SEM
T6 sequence (P21917 1-419): T2 sequence (P21917 1-419)

[11] = target: T3, DRD2 F1103.28A; type: binding; parameters: expressed in transfected cells; host or cells: HEK293T (ATCC CRL-11268); details: DRD2 F1103.28A; read-out: Ki
[12] = target: T1, DRD2 (D2 long receptor); assay: β-arrestin2 recruitment (Tango), HTLA cells; type: cell-based; details: for Emax relative to quinpirole response / EC50: DRD2; for Emax relative to quinpirole response: Tango; for EC50: β-arrestin2 recruitment (Tango), read-out: EC50 ± SEM; for response, Fig_S11e dose-response source data: replicate values
[13] = target: T3, DRD2 F1103.28A; assay: Gαi/o-mediated cAMP inhibition (GloSensor), mutant; type: cell-based; parameters: expressed in transfected cells; host or cells: HEK293T (ATCC CRL-11268)
[14] = target: DRD2 (D2 long receptor) wild-type (Homo sapiens, UniProt P14416); assay: Radioligand competition binding, [3H]-N-methylspiperone, HEK293T membranes; details: DRD2; [3H]-methylspiperone (0.8-1.0 nM); read-out: Ki
[15] = target: T6, DRD4 (D4.4 variant); assay: β-arrestin2 recruitment (Tango); type: cell-based; details: DRD4; Tango; read-out: EC50 ± SEM

T5 sequence (P14416 whole entry F110L): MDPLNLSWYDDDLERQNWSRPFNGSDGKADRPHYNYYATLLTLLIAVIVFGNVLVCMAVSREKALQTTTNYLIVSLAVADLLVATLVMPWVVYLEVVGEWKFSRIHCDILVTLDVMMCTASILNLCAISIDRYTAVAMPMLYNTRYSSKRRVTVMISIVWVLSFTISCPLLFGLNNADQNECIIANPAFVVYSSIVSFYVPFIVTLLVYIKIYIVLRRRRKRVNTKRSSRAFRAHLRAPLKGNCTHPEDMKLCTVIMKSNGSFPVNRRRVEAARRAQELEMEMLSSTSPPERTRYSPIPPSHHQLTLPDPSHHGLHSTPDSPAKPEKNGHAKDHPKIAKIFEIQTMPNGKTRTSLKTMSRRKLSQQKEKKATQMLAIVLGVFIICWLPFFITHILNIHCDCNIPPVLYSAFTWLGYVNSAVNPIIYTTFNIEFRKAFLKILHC
T3 sequence (P14416 whole entry F110A): as the sequence (P14416 whole entry F110L) above, with L110A counted along it
Chain of DRD3 wild-type (P35462 whole entry): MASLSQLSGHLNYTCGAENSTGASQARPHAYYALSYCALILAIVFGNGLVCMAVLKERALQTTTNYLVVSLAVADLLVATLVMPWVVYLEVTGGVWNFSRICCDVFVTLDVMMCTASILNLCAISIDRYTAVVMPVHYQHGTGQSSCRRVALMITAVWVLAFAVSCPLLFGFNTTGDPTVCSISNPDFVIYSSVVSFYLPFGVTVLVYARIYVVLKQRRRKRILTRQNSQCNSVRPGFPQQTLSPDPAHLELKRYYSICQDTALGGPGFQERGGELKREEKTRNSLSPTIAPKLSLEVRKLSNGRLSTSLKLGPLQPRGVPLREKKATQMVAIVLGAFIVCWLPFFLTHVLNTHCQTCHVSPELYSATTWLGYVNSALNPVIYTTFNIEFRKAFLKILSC
T4 sequence (P35462 whole entry F106A): as the sequence (P35462 whole entry) above, with F106A counted along it
T1 sequence (P14416 whole entry): as the sequence (P14416 whole entry F110L) above, with L110F counted along it
Chain of DRD3 (P35462 whole entry): as the sequence (P35462 whole entry) above
Chain of DRD2 (D2 long receptor) wild-type (P14416 whole entry): as the sequence (P14416 whole entry F110L) above, with L110F counted along it

## CCOc1cccc2cc(C(C)NCC3(O)CCC3)oc12.Cl (stereo not shown) [O4LE4]
[1]
  EC50: > 10 µM
[2]
  EC50: > 10 µM
[2]; Log[Drug] -5
  response, Fig_S11d dose-response source data: 88.7746 and 78.3782 and 91.7272 and 89.26 and 93.9579 and 91.5672
[2]; Log[Drug] -5.52
  response, Fig_S11d dose-response source data: 76.2939 and 86.2437 and 82.5466 and 72.7587 and 77.8913 and 84.3113
[2]; Log[Drug] -6
  response, Fig_S11d dose-response source data: 73.2172 and 67.3366 and 60.3892 and 68.228 and 67.275 and 64.901
[2]; Log[Drug] -6.52
  response, Fig_S11d dose-response source data: 64.6321 and 59.5207 and 69.0487 and 71.8726 and 63.9982 and 65.6366
[2]; Log[Drug] -7
  response, Fig_S11d dose-response source data: 48.9755 and 46.0724 and 53.9876 and 53.6995 and 51.8772 and 46.0423
[2]; Log[Drug] -7.52
  response, Fig_S11d dose-response source data: 42.028 and 41.6806 and 36.1226 and 35.9109 and 33.9715 and 35.5263
[2]; Log[Drug] -8
  response, Fig_S11d dose-response source data: 31.6316 and 34.088 and 41.4325 and 32.2829 and 31.564 and 29.1733
[2]; Log[Drug] -8.52
  response, Fig_S11d dose-response source data: 10.5658 and 5.306 and 29.9195 and 26.7491 and 32.2996 and 23.9905
[2]; Log[Drug] -9
  response, Fig_S11d dose-response source data: 29.0014 and 17.2156 and 19.2005 and 25.2611
[2]; Log[Drug] -9.52
  response, Fig_S11d dose-response source data: 13.8163 and 7.489 and 22.6246 and 25.1441 and 33.3529 and 8.96
[2]; Log[Drug] -10
  response, Fig_S11d dose-response source data: 3.445 and 9.573 and 23.9738 and 15.1965 and 19.209
[2]; Log[Drug] -10.52
  response, Fig_S11d dose-response source data: 10.9876 and 14.9328 and 18.3073 and 10.6825 and 15.9488
[2]; Log[Drug] -11
  response, Fig_S11d dose-response source data: 8.655 and 3.048 and 14.6949 and 5.45 and 17.0857
[2]; Log[Drug] -11.52
  response, Fig_S11d dose-response source data: 13.0471 and 8.407 and 20.4163
[2]; Log[Drug] -12
  response, Fig_S11d dose-response source data: 4.834 and -8.7134 and -10.8678 and -0.937
[3]
  Ki: > 10 µM
[4]
  EC50: > 10 µM
[5]
  Ki: > 10 µM
[6]
  EC50: > 10 µM
[7]
  EC50: > 10 µM
[8]
  Ki: 4.07 µM
  pKi ± SEM: 5.39±0.09
[9]
  EC50: > 10 µM
[10]
  EC50: > 10 µM
[11]
  Ki: > 10 µM
[12]
  Emax relative to quinpirole response: 31.72%
  EC50: 4.89 ± 0.671 µM
[12]; Log[Drug] -6.52
  response, Fig_S11e dose-response source data: 6.042
[12]; Log[Drug] -7
  response, Fig_S11e dose-response source data: 4.575 and 5.092 and 4.213 and 4.207 and 4.48
[12]; Log[Drug] -7.52
  response, Fig_S11e dose-response source data: 3.784 and 4.2108 and 4.594 and 4.116 and 3.67
[12]; Log[Drug] -8
  response, Fig_S11e dose-response source data: 3.831 and 3.706 and 4.29 and 4.002 and 5.34
[12]; Log[Drug] -8.52
  response, Fig_S11e dose-response source data: 4.064 and 3.966 and 4.203 and 4.282 and 4.286
[12]; Log[Drug] -9
  response, Fig_S11e dose-response source data: 3.882 and 3.744 and 4.042 and 3.918 and 3.839
[12]; Log[Drug] -9.52
  response, Fig_S11e dose-response source data: 3.68 and 4.032 and 4.215 and 3.926 and 3.7929
[12]; Log[Drug] -10
  response, Fig_S11e dose-response source data: 3.326 and 3.898 and 4.025 and 3.996
[12]; Log[Drug] -10.52
  response, Fig_S11e dose-response source data: 3.698 and 4.067 and 4.341 and 4.225 and 3.808
[12]; Log[Drug] -11
  response, Fig_S11e dose-response source data: 4.084 and 3.675 and 4.011 and 3.975 and 3.611
[12]; Log[Drug] -11.52
  response, Fig_S11e dose-response source data: 3.79 and 4.079 and 4.55 and 4.262 and 4.155
[12]; Log[Drug] -12
  response, Fig_S11e dose-response source data: 5.029 and 3.661 and 4.455 and 4.071 and 4.046
[13]
  EC50: > 10 µM
[14]
  Ki: > 10 µM
[15]
  EC50: > 10 µM

## CCOc1cccc2cc(C(C)NCC3(O)CC3)oc12.Cl (racemic) [O4LE3]
[1]
  EC50: > 10 µM
[2]
  EC50: > 10 µM
[3]
  Ki: > 10 µM
[4]
  EC50: > 10 µM
[5]
  Ki: > 10 µM
[6]
  EC50: > 10 µM
[7]
  EC50: > 10 µM
[8]
  Ki: 4.37 µM
  pKi ± SEM: 5.36±0.31
[9]
  EC50: > 10 µM
[10]
  EC50: > 10 µM
[11]
  Ki: > 10 µM
[12]
  Emax relative to quinpirole response: 9.29%
  EC50: 8.85 ± 2.62 µM
[13]
  EC50: > 10 µM
[14]
  Ki: > 10 µM
[15]
  EC50: > 10 µM
